Where no end group is shown, it is not given here.
Assays:
NK92 cells [1] = experiment: Fratricide inhibition of NK cells; assay type: cell-based; details: NK92 target cells pretreated with 20 μM peptide or 5 μM SB431542 plus 10 ng/ml TGF-β; fresh NK92 (20:1) or primary NK (10:1) effector cells; 4 hours
Protocol: To this end, 1×10^6 cells/ml of the NK92 cells cultured in the same manner as Example [2-1] were cultured for 1 hour at 37° C. with a culture medium added with 5 μl of calcein-AM (Invitrogen) and stained, and then centrifuged at 1000 rpm for 5 minutes and washed to be prepared as ‘target cells.’ As described above, the target cells stained with calcein-AM were dispensed in a 96-well plate, respectively, and treated with untreated (fresh) NK92 cells or primary NK cells as effector cells at the ratio of 20:1 or 10:1 in the same manner as Example [2-3], and cultured at 37° C. for 4 hours. The culture medium cultured above was centrifuged at 100 rcf for 5 minutes to separate the supernatant, and 100 μl each was dispensed into a 96-well black plate, and then ELISA assay (Fluorescence 480 nm/530 nm, SpectraMax i3x Molecular Device) was performed.

NK92 cells [2] = experiment: Recovery of cytotoxicity of NK92 cells decreased by TGF-β (calcein-AM release); assay type: cell-based; details: effector NK92 cells pretreated with 20 μM peptide or 5 μM SB431542 plus 10 ng/ml TGF-β; target cells H460, H3122, K562; E:T 20:1; 4 hours
Protocol: NK92 cells were cultured in a 37° C. CO2 incubator (water jacketed incubator, Thermo electron corporation) supplied with 5% CO2 by adding an α-MEM (Welgene) culture medium added with 12.5% fetal bovine serum (FBS, Corning, united states origin, 35-015-CV) and 12.5% horse serum (Gibco) according to ATCC culture conditions with 0.2 mM myo-inositol, 0.1 mM 2-mercaptoethanol, 0.02 mM folic acid, 1% antibiotics-antimycotic (Gibco) and IL-2 cytokine (Peprotech) at a concentration of 20 ng/ml to be used as a culture medium.
The cells were cultured in about 20 to 30 ml in a T-75 flask (Thermo) at a concentration of 1×10^5 cells/ml, and centrifuged at 1000 rpm for 5 minutes every 2 to 3 days using a centrifuge (Beckman Coulter) to remove the supernatant, and then the culture medium was replaced. […]
The target cells stained with calcein-AM in Example [2-2] were dispensed in a 96-well plate, respectively, and treated with the effector cells prepared in Example [2-1]. […] The culture medium cultured above was centrifuged at 100 rcf for 5 minutes to separate the supernatant, and 100 μl each was dispensed into a 96-well black plate, and then ELISA assay (Fluorescence 480 nm/530 nm, SpectraMax i3x Molecular Device) was performed.

[3] = tested on: H460 lung cancer cell line; experiment: Recovery of sensitivity of NK cells to cancer cells decreased by TGF-β; assay type: cell-based; details: H460 target cells pretreated with 20 μM peptide or 5 μM SB431542 plus 10 ng/ml TGF-β; fresh NK92 effector cells, E:T 20:1; 4 hours
Protocol: To this end, first, 1×10^5 cells/ml of a H460 lung cancer cell line was added with 20 μM the peptide of Example [1-5] or 5 μM a TGF-β signal inhibitor SB431542, respectively, cultured at 37° C. for 2 hours, and then added with 10 ng/ml of TGF-β, and cultured again for 24 hours under the same conditions, respectively. Then, the cells were added with 20 μM the peptide of Example [1-5] or 5 μM SB431542, cultured at 37° C. for 2 hours, and then added with 10 ng/ml of TGF-β, and cultured under the same conditions for 24 hours, respectively. 1×10^6 cells/ml of the H460 cells cultured above were cultured for 1 hour at 37° C. with a culture medium added with 5 μl of calcein-AM (Invitrogen) and stained, and then centrifuged at 1000 rpm for 5 minutes and washed to be prepared as ‘target cells.’
As described above, the target cells stained with calcein-AM were dispensed in a 96-well plate, respectively, and treated with untreated (fresh) NK92 cells as effector cells at an E:T ratio of 20:1, and cultured at 37° C. for 4 hours. The culture medium cultured above was centrifuged at 100 rcf for 5 minutes to separate the supernatant, and 100 μl each was dispensed into a 96-well black plate, and then ELISA assay (Fluorescence 480 nm/530 nm, SpectraMax i3x Molecular Device) was performed.

primary NK cells = experiment: Recovery of cytotoxicity of primary NK cells decreased by TGF-β (calcein-AM release); assay type: cell-based, human; details: effector primary NK cells pretreated with 20 μM peptide plus 10 ng/ml TGF-β; target cells H460, H3122, K562; E:T 10:1; 4 hours
Protocol: 2 μl of Rosettesep Human CD3 depletion cocktail (STEMCELL technologies, catalog #15621) per 1 ml of blood was added to umbilical cord blood (IRB approval number P01-201610-31-002) donated from the hospital and reacted for 20 minutes. […] At this time, it could be noted that the blood and the Ficoll layer were not mixed. To separate the cell layer from the blood, red blood cells and CD3 cells were isolated and discharged from the blood by centrifugation under conditions of 2000 rpm and Decel 0 for 25 minutes using a centrifuge (Beckman Coulter). The CD3-isolated cells reacted with 10 ml of an ACK buffer for 10 minutes to remove remaining red blood cells, and then washed twice using phosphate-buffered saline (PBS) added with 2% FBS. The washing was performed by centrifuging at 1500 rpm for 5 minutes using a centrifuge (Beckman Coulter) to remove the supernatant. The cells obtained above were used to be cultured as NK cells.
The NK cells were cultured by adding alpha-MEM (Welgene) added with 10% FBS (Corning, United States origin, 35-015-CV) with 10 ng/ml IL-15 (Peprotech), 10 ng/ml IL-21 (Peprotech), […] hydrocortisone (Peprotech) and 1% antibiotics-antimycotic (Gibco). […]

Row | Compound | fratricide activity of the NK cells (NK92 cells [1]) | cytotoxicity of NK92 cells (NK92 cells [2]) | cytotoxicity of the NK cells for treated H460 cells [3] | cytotoxicity of primary NK cells (primary NK cells)
1 | NC(=O)c1ccc(-c2nc(-c3ccc4c(c3)OCO4)c(-c3ccccn3)[nH]2)cc1 [SB431542] | significantly reduced | recovered | recovered again | –
2 | GSKKVILDLPLVI [peptide of Example [1-5]] | – | recovered | recovered again | equally confirmed

Source: patent publication US20250230190A1, “COMPOSITION FOR ENHANCING ACTIVITY OF NATURAL KILLER CELLS” (Ingenium Therapeutics, priority 2021, published 2025)
